Assay results published in paper PMC7802073, “Small Molecule Inhibitors of the Bacterioferritin (BfrB)–Ferredoxin (Bfd) Complex Kill Biofilm-Embedded Pseudomonas aeruginosa Cells” (ACS Infectious Diseases, 2020).
≈ marks a conversion by molar mass, not a printed value. Where “and” joins values, the source holds several entries; their conditions need not be identical. Equal values may be shown once.

Assays:
[1] = system: Pellicles of P. aeruginosa PAO1 expressing EYFP; assay: Pellicle biofilm assay, CLSM imaging and COMSTAT viable biomass; assay type: cell-based, Pseudomonas aeruginosa; details: 24 h, approximately 1.2× IC50 (KM-5-25 80 μM, KM-5-66 50 μM)
Description: Pellicle biofilms of EYFP-expressing P. aeruginosa PAO1 or clinical isolates were grown in PI media supplemented with 20 μM Fe. Starter cultures were diluted to OD600 = 0.001 in 4 mL media, placed in 35 × 10 mm Petri dishes and incubated statically at 30 °C for 48 h. The pellicles were transferred onto circular (1.5 cm diameter) glass coverslips by gently allowing the surface of a coverslip to contact a pellicle. The pellicle-adhered coverslip was washed in PBS and then deposited on top of 1.5 mL AB challenge media contained in a well of a 12-well microplate, with the pellicle exposed to the media. […] The coverslip-adhered pellicles were exposed to challenge media at 30 °C for 24 h, changing the challenge media every 12 h by transferring the pellicle-adhered coverslip to a new plate containing prewarmed challenge media.
Excess fluorescent dye was washed with PBS, the coverslip was mounted on a glass slide using 5 μL SlowFade (Invitrogen Life Technologies) and the edges sealed with fingernail polish. CLSM image stacks (z-step size of 0.3 μm) were acquired with the aid of a Leica TCS SP8 microscope, as described above. Quantitative analysis was performed by determination of pellicle biomass using COMSTAT[55] and the Otsu method of automatic thresholding.[86]

BfrB = BfrB (Pseudomonas aeruginosa, UniProt Q9HY79); assay: Dissociation constant (Kd) for BfrB by fluorescence polarization; assay type: binding
BfrB, sequence (Q9HY79 whole entry): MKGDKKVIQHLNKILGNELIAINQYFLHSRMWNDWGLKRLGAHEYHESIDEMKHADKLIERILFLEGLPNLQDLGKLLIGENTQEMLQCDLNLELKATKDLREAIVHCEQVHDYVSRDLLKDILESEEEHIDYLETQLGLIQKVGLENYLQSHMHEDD
Description: Dissociation constants for the interaction between BfrB and 3-aminoisoindoline-1,3-dione derivatives (Table 1, Figure S1) were measured in vitro with a fluorescence polarization method based on the intrinsic fluorescence of the isoindoline-1,3-dione moiety, as described previously.[25]
25 (A) and KM-5-66 (B) for BfrB, evaluated by fluorescence polarization, as described previously1.
Values were obtained in 100 mM potassium phosphate buffer (pH 7.6) containing 1 mM TCEP and
0.5% DMSO. The initial concentrations of KM-5-25 and KM-5-66 were 5 µM. The Kd values are the
average and standard deviation from three independent measurements. […]

[2] = system: EYFP-expressing P. aeruginosa PAO1 pellicles; assay: Viable cells (CFU/mL) dispersed from pellicle biofilms; assay type: cell-based, Pseudomonas aeruginosa; details: 24 h; for viable cell count relative to the untreated pellicle (% cell survival): KM-5-25 40 μM (0.6× IC50) or KM-5-66 20 μM (0.5× IC50)
Description: Pellicle biofilms were grown as described above. Planktonic and loosely attached cells were washed (3 times) by immersing the coverslip-adhered pellicles (biofilm facing up) into a well of a 12-well plate containing 3 mL PBS, and incubating (5 min) with gentle rocking. To remove the pellicle from the coverslip, break the extracellular matrix and release cells from the biofilm, the coverslip-adhered pellicle was placed in a 50 mL conical tube containing a 2 mL suspension of zirconia beads (0.1 mm diameter, BioSpec Products), 10 mL PBS, 0.2 μg/mL alginate lyase and 0.2 μg/mL DNase. The resultant mixture was incubated at room temperature for 3 min, followed by vigorous vortexing for 4 min. After sedimentation of the zirconia beads, a 100 μL aliquot was used for serial dilution and plating on PIA plates for subsequent enumeration of viable cells (CFU/mL).

P. aeruginosa PAO1 = assay: Half maximal inhibitory concentration (IC50) on planktonic growth, CFU/mL enumeration; assay type: cell-based, Pseudomonas aeruginosa; details: Pseudomonas aeruginosa, PAO1, defined media, 24 h, 35 °C, 2% DMSO, this work, read-out: IC50
Description: Chemicals were purchased from Fisher Scientific unless otherwise stated. P. aeruginosa PAO1 was obtained from the University of Washington Genome center.[81] The PAO1 strain expressing enhanced yellow fluorescent protein (EYFP) was prepared previously.[26] Clinical isolates of P. aeruginosa were purchased from JMI Laboratories (North Liberty, IA, USA). […] Starter cultures were grown from a single colony at 37 °C and shaking at 220 rpm for 14 h in 5 mL PI media supplemented with 10 μM Fe. Pellicle biofilms were cultured for 48 h at 30 °C in PI media supplemented with 20 μM Fe. Surface-attached biofilms were cultured in AB minimal media[82] supplemented with trace metals [0.15 μM (NH4)2MoO4, 3 μM CuSO4, 2 μM Co(NO3)2, 9.4 μM Na2B4O7, and 7.6 μM ZnSO4], 3 mM glucose and 15 μM Fe. Iron supplementation was carried out by addition of a small volume of filter-sterilized 10 mM (NH4)2Fe(SO4)2 (pH ∼ 2.0) solution. […]; IC50 values (Table 1, Figure S1) were determined as reported previously[25] with small modifications. In brief: precultures of P. aeruginosa PAO1 (5 mL) were grown in LB media for 13 h at 37 °C and 220 rpm in 50 mL conical tubes (VWR International, PA). The cells were centrifuged for 5 min at 4000 rpm and 4 °C, washed two times and then diluted in buffer (100 mM KH2PO4 and 15 mM (NH4)2SO4) to an optical density at 600 nm (OD600) of 0.1. A small volume of compound stock solution (10 mM) was transferred to a microcentrifuge tube, initially diluted with DMSO to 20 μL, and then diluted to 1 mL with preculture cell suspension in defined media with OD600 = 0.0001, so the final DMSO concentration is 2%. The resultant cell suspension (200 μL) was transferred to a clear-bottom polystyrene 96-well plate (VWR) covered with a lid and incubated at 35 °C and 205 cpm for 24 h in a Synergy H1 microplate reader (Biotek Instruments Inc., Vermont). The cell cultures were serially diluted and then plated on PI Agar (PIA; BD biosciences) plates for enumeration of viable cells (CFU/mL). The % growth was calculated from the ratio CFU/mL(treated)/CFU/mL(untreated control). To calculate the IC50 values, the % growth was plotted as a function of compound concentration, expressed as log[compound] (μM), and fitted to the 4-parameter logistic model describing the sigmoid-shaped response pattern (eq 1),[84] where b is the slope factor, max is the upper asymptote (plateau), and min is the lower asymptote. Values are the average and standard deviation from three independent experiments. [drawing 1] 1

Aqueous solubility = assay type: physicochemical; details: aqueous media; read-out: soluble in aqueous media to
[3] = 2-day old pellicles, 1.2× IC50 (KM-5-25 80 μM, KM-5-66 50 μM)
[4] = compound at 1.2× IC50 combined with colistin 25× MIC (20 μM)
[5] = compound at 1.2× IC50 combined with colistin 25× MIC
[6] = compound at 1.2× IC50 combined with colistin 50× MIC (40 μM)
[7] = compound at 1.2× IC50 combined with colistin 50× MIC
[8] = compound at 1.2× IC50 combined with tobramycin 25× MIC (27 μM)
[9] = compound at 1.2× IC50 combined with tobramycin 25× MIC
[10] = compound at 1.2× IC50 combined with tobramycin 50× MIC

SMILES | cells in the pellicle killed (COMSTAT) [1] | Kd (BfrB) | % survival relative to cells in the pretreated biofilm ([2]; 2-day old pellicles, 0.6× IC50) | % survival relative to cells in the pretreated biofilm [2, 3] | viable cell count relative to the untreated pellicle (% cell survival) ([2]; 2-day old pellicles) | % survival, combination treatment [2, 4] | reduction of viable cells relative to treatment with colistin alone [2, 5] | % survival, combination treatment [2, 6] | reduction of viable cells relative to treatment with colistin alone [2, 7] | % survival, combination treatment [2, 8] | reduction of viable cells relative to treatment with tobramycin alone [2, 9] | % survival, combination treatment [2, 10] | reduction of viable cells relative to treatment with tobramycin alone [2, 10] | IC50 (P. aeruginosa PAO1) | solubility (Aqueous solubility) | % survival relative to cells in the pellicles prior to treatment ([2]; 2-day old pellicles, 0.3× IC50)
O=C1NC(=O)c2c(NCc3cc(Cl)ccc3O)cccc21 [KM-5-25, 4-((5-Chloro-2-hydroxybenzyl)amino)isoindoline-1,3-dione] | ~85% | 4000 ± 600 nM | ~38% | ~25% | 42% and 42.5% | ~1% | ~1 log | ~0.5% | ~0.7 log | ~0.5% | approximately 2.5 log | ~0.003% | ~4.7 log | 69 ± 7 µM | ~110 µM (≈ 33.3 µg/mL) | –
O=C1NC(=O)c2c(NCCCc3cc(O)cc(Cl)c3)cccc21 [KM-5-66, 4-((3-(3-Chloro-5-hydroxyphenyl)propyl)amino)isoindoline-1,3-dione] | ~85% | 350 ± 50 nM | ~21% | ~15% | 37% and 37.2% | ~0.3% | approximately 1.7 log | ~0.02% | ~1.9 log | 5% | approximately 1.5 log | 1% | ~2 log | 42 ± 6 µM | ~80 µM (≈ 26.5 µg/mL) | approximately 57%
